For data set [1], the system named is HER2. The experiment in a line: EGF-induced endolysosomal degradation of HER2, Western blot. The class given is cell-based. The note with it: SKBR3, 2 μM. How it is done:
(§1) FIG. 9 is a schematic diagram of the result showing peptides based on (I7-01s) scaffold are potent inducers of endolysosomal trafficking. (a-c) Western blot to assess the HER2 and EGFR levels in SKBR3 cells. Cells are starved overnight and are treated with 200 ng/ml EGF respectively with vehicle control (a), 2 μM Tat-SP4 (b), 2 μM i7-01s-31 (c). (d & e) Time-dependent plots to quantify HER2 and EGFR degradation profiles after three independent experiments. The levels of HER2 (d) and EGFR (e) are normalized to the β-actin level at different time points and then further normalized to time 0, when the ligand EGF is added. Data are presented as mean±SEM (n=3).
In some embodiments, the Beclin 1-targeting stapled peptide provided by the present disclosure can effectively promote endolysosomal trafficking. As a scaffolding member of the PI3KC3 complex, Beclin 1 is essential for multiple PI3KC3-dependent processes including autophagy, endolysosomal trafficking and phagocytosis. To assess the efficacy of the newly designed peptides on the endolysosomal trafficking process, the ligand-induced endolysosomal degradation of cell surface receptors HER2 and EGFR is characterized by western blotting using SKBR3 breast cancer cell line that over-expresses both EGFR and HER2. […] In contrast, i7-01s-31 treatment at 2 μM results in significant reduction of HER2 level, with about 50% decrease at 15 hours post EGF stimulation, and about 70% decrease at 24 hours (as shown in FIGS. 9c & 9d). i7-01s-31 treatment also strongly promotes EGFR degradation, with approximately 60% reduction at 15 hours post EGF stimulation (as shown in FIGS. 9c & 9e).
Whole cell lysates are extracted using Laemmli sample buffer (62.5 mM Tris-HCl, pH 6.8, 2% SDS, 25% glycerol, 5% β-mercaptoethanol) supplemented with EDTA-free protease inhibitor cocktail (Roche). Protein concentration is determined using a standard Bradford assay before immunoblotting. Protein samples are separated by SDS-PAGE, transferred to a PVDF membrane (Millipore, USA), and incubated with the primary antibodies and HRP-conjugated secondary antibodies. […]
(In general: A western blot detects proteins with antibodies after separation by electrophoresis.)

The test system of data set [2] is HEK293T cells. The experiment in a line: Trypan blue exclusion cytotoxicity assay in HEK293T cells. The class given is cell-based. How it is done:
FIG. 7 is a schematic diagram of the result of evaluating the cytotoxicity of the newly designed stapled peptide on HEK293T cells by the trypan blue exclusion assay.
Cell viability is measured by trypan blue exclusion assay following the standard protocol provided by the manufacturer. SKBR3 cells are seeded on 96-well plates containing complete medium at a density of 1×10^4 cells per well. Upon cell attachment, cells are treated with the indicated stapled peptide or vehicle control for 24 hours. Afterwards, the number of trypan blue positive staining cells and the number of total cells are manually counted under a light microscope (Olympus). Cell viability is calculated as the number of viable cells divided by the total number of cells. All experiments are repeated in triplicate and the mean is calculated.

The subject of data set [3] is SKBR3 cells. The experiment in a line: Flow cytometry with Annexin V FITC-PI staining. Type of data set: cell-based. How it is done:
FIG. 12 is a schematic diagram of the result showing the peptides based on strategy (i7-01s) scaffold induce cell death with necrotic features. Flow cytometry analysis with Annexin V FITC-PI staining is performed in SKBR3 cells after treatment of the indicated peptides for 24 hours.
The degree of cellular apoptosis and necrosis is assessed by flow cytometry following the standard protocol provided by the manufacturer. Briefly, SKBR3 cells after the indicated peptide treatment are harvested by trypsin, labelled with Annexin V and PI (Invitrogen), subjected to flow cytometer system (BD Accuri C6), and analyzed by BD Accuri C6 software. The cell populations can be distinguished by the staining of Annexin V/PI. Typically, cellular population in the lower left quadrant is live cells (Annexin V^−, PI^−), the lower right quadrant represents early apoptotic cells (Annexin V^+, PI^−), the upper right quadrant represents late apoptotic cells (Annexin V^+, PI^+), the upper left quadrant represents necrotic cells (Annexin V^−, PI^+).
In general terms: A flow cytometer gives signals particle by particle.

Data set [4] relates to SKBR3 cells. Description: Trypan blue exclusion assay, IC50 in SKBR3 cells. The class given is cell-based. The note with it: SKBR3, 24h. How it is done: (§2) (a) Trypan blue exclusion assay to assess the cytotoxicity IC50 (half maximal inhibitory concentration) of the indicated peptides in SKBR3 cells. Cells are treated with various concentrations of the indicated peptides for 24h. Cell numbers are manually counted by the trypan blue exclusion assay using a hemocytometer. Data are presented as mean±SD from three independent experiments. (b-d) Cell proliferation assay is performed over a time span of five days in SKBR3 cells after treatment with the indicated peptides. Cells are treated with the indicated peptides at day 0 and the cell number is calculated at the given time points. The assay is performed in 96 well plates with three independent measurements. Tat-SC4 is a control peptide with scrambled Tat-SP4 sequence but without the hydrocarbon staple.
Cell viability is measured by trypan blue exclusion assay following the standard protocol provided by the manufacturer. SKBR3 cells are seeded on 96-well plates containing complete medium at a density of 1×10^4 cells per well. […] Afterwards, the number of trypan blue positive staining cells and the number of total cells are manually counted under a light microscope (Olympus). Cell viability is calculated as the number of viable cells divided by the total number of cells. All experiments are repeated in triplicate and the mean is calculated.

For data set [5], the system named is EGFR. Description: EGF-induced endolysosomal degradation of EGFR, Western blot. The class given is cell-based. The note with it: SKBR3, 2 μM, 15 hours post EGF stimulation. How it is done:
as §1
In some embodiments, the Beclin 1-targeting stapled peptide provided by the present disclosure can effectively promote endolysosomal trafficking. As a scaffolding member of the PI3KC3 complex, Beclin 1 is essential for multiple PI3KC3-dependent processes including autophagy, endolysosomal trafficking and phagocytosis. […]
Whole cell lysates are extracted using Laemmli sample buffer (62.5 mM Tris-HCl, pH 6.8, 2% SDS, 25% glycerol, 5% β-mercaptoethanol) supplemented with EDTA-free protease inhibitor cocktail (Roche). Protein concentration is determined using a standard Bradford assay before immunoblotting. […]

The target in data set [6] is T1, Beclin 1 coiled coil domain (Homo sapiens, UniProt Q14457).
T1 construct: the coiled coil domain of human Beclin 1 (residues 176-268); thioredoxin-6xHis fusion tag with HRV 3C protease cleavage site; made in house; host or cells: Escherichia coli BL21(DE3)
T1 sequence (Q14457 176-268): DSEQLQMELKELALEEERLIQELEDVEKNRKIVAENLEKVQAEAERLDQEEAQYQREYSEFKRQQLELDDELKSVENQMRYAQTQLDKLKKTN
The experiment in a line: Isothermal titration calorimetry (ITC) binding affinity. Particulars: 25° C., pH 7.4, Tat-fused peptide, read-out: Kd. How it is done:
The expression and purification of Beclin 1 coiled coil domain is performed as described previously. Briefly, the coiled coil domain of human Beclin 1 (residues 176-268) is cloned into the modified pET32a vector containing the human rhinovirus (HRV) 3C protease cleavage site and thioredoxin-6×His fusion tag. Recombinant protein for the Beclin1 coiled oil domain is expressed in Escherichia coli BL21(DE3) and purified by Ni^2+-NTA affinity chromatography (His Trap HP, GE Healthcare) first and followed by size-exclusion chromatography (Superdex 75, GE Healthcare).
ITC assays are carried out by MicroCal PEAQ-ITC Automated (Marvern) at 25° C. All designed peptides and purified protein for the Beclin 1 coiled coil domain are dialyzed into the buffer containing 50 mM Tris, 150 mM NaCl at pH 7.4. For each titration assay, the injection syringe is loaded with 40 μl of peptide and the cell is loaded with Beclin 1 coiled coil domain protein. Typically, titrations consist of 19 injections, and each injection is performed at a time interval of 180 seconds to ensure that the titration peak returns to the baseline. The titration data are analyzed using the MicroCal PEAQ-ITC Analysis software and fitted by the one-site binding model.

Data set [7] relates to HEK293T cells. The experiment in a line: Western blot of autophagy markers LC3 and p62. The class given is cell-based. How it is done: FIG. 8 is a schematic diagram showing that the peptides based on the i7-01s scaffold are effective inducers of autophagy. (a) Western blot to assess the p62 level and LC3 lipidation profile in HEK293T cells after treatment with 10- and 20-μM i7-01s-31 for 3 hours, in the presence or absence of CQ. (b)&(c) Quantification of LC3 lipidation profiles from the Western blot data. (d)&(e) Quantification of p62 levels from the Western blot data from (a).
The impact of these two peptides on cellular autophagic activity is examined by detecting the protein levels of LC3 and p62, two molecular markers of autophagy. During the autophagy process, cytosolic protein LC3 is converted from its apo form (LC3-I) to lipidated form (LC3-II) for accumulation on autophagosomes. Thus, an increase in LC3-II level is regarded as a reliable indicator of elevated cellular autophagic activity. Similarly, p62 is an autophagy receptor that is degraded in the lysosome together with autophagic substrates. A decrease in p62 level is also commonly used as an indicator for higher autophagic activity, although some studies have shown that p62 is not as sensitive as LC3-II.
Whole cell lysates are extracted using Laemmli sample buffer (62.5 mM Tris-HCl, pH 6.8, 2% SDS, 25% glycerol, 5% β-mercaptoethanol) supplemented with EDTA-free protease inhibitor cocktail (Roche). Protein concentration is determined using a standard Bradford assay before immunoblotting. Protein samples are separated by SDS-PAGE, transferred to a PVDF membrane (Millipore, USA), and incubated with the primary antibodies and HRP-conjugated secondary antibodies. Protein bands are visualized using ECL reagents. β-actin is used as the internal reference protein to control the loading amount of SDS-PAGE.

Data set [8] has as its system SKBR3 cells. The experiment in a line: Five-day cell proliferation assay. Type of data set: cell-based. The note with it: SKBR3, five days, 10 μM. How it is done:
as §2

Entries after “also recorded” stand apart in the source; their conditions may differ. Bridge positions count the residues as written; N and C are the ends. Square brackets hold non-standard residues; d marks the D form. Peptide text beside a SMILES is read from it. R8 = C=CCCCCCC[C@@](C)(N)C(=O)O; S5 = C=CCCC[C@](C)(N)C(=O)O

Regarding `CC[C@H](C)[C@@H]1NC(=O)[C@H](C(C)C)NC(=O)[C@H](CC(=O)O)NC(=O)[C@H](C(C)C)NC(=O)[C@H](CC(C)C)NC(=O)[C@](C)(NC(=O)[C@H](CC(N)=O)NC(=O)[C@H](Cc2ccccc2)NC(=O)[C@H](CC(C)C)NC(=O)[C@@H](NC(=O)[C@H](CCCNC(=N)N)NC(=O)[C@H](CCCNC(=N)N)NC(=O)[C@H](CCCNC(=N)N)NC(=O)[C@H](CCC(N)=O)NC(=O)[C@H](CCCNC(=N)N)NC(=O)[C@H](CCCNC(=N)N)NC(=O)[C@H](CCCCN)NC(=O)[C@H](CCCCN)NC(=O)[C@H](CCCNC(=N)N)NC(=O)CNC(=O)[C@H](Cc2ccc(O)cc2)NC(C)=O)C(C)C)CCCCCCC=CCCC[C@@](C)(C(=O)N[C@@H](CCCNC(=N)N)C(=O)N[C@@H](CCCCN)C(=O)N[C@H](C(N)=O)C(C)C)NC(=O)[C@H](CCCCN)NC1=O` [i7-01s-31] (Ac-YGRKKRRQRRRVLFN[R8]LVDVIK[S5]RKV-NH2; staple 16-23), the “decrease of HER2 level” value is on record as “about 50%” in data set [1] (15 hours post EGF stimulation) and “about 70%” in data set [1] (24 hours post EGF stimulation). Moreover, the cell viability result in data set [2] (5 μM, 24 hours) is recorded as “little impact on cell viability”. In addition, in data set [2] (20 μM, 24 h), the cytotoxicity entry is reported as “negligible cytotoxicity”. Besides, the PI positive cells result in data set [3] (SKBR3, 10 μM, 24 hours) is “approximately 30%”. For the same compound, the “change of Annexin V positive cells (apoptosis)” value in data set [3] (SKBR3, 24 hours) is given as “without notable changes; also recorded: no increase”. For the same compound, the “change of PI positive staining cells (dead cells)” value in data set [3] (SKBR3, 24 hours) is recorded as “significantly increased; also recorded: significant increase”. Further, half-maximal inhibition in data set [4] (IC50) required 7.12 µM. Also, the “reduction of EGFR” value in data set [5] is “approximately 60%”. The Kd in data set [6] turned out to be 0.33 ± 0.28 µM. Besides, the “autophagy induction compared with Tat-SP4” value in data set [7] is listed as “comparable efficacy”. The LC3-II levels result in data set [7] (10 and 20 μM, 3 hours, absence of CQ) is “noticeable albeit small increase”; in data set [7] (10 and 20 μM, 3 hours, presence of chloroquine (CQ)), “significantly stronger”. Further, the “protein level of p62” value in data set [7] (10 and 20 μM, 3 hours, presence or absence of CQ) is listed as “does not show any noticeable change”. In addition, in data set [8], the “effect on cell proliferation” value is “completely abolish cell proliferation”.

By IC50 is commonly meant the concentration that gives 50% inhibition. In general, Kd refers to a measure of binding affinity in units of concentration.

The record behind these values is patent publication US20240190920A1, “BECLIN 1-TARGETED STAPLED PEPTIDE AND PHARMACEUTICAL COMPOSITION” (Shenzhen Research Institute of the Hong Kong Polytechnic …, priority 2021, published 2024).
